In US20050209295A1, “Methimazole derivatives and tautomeric cyclic thiones to inhibit cell adhesion” (priority 2004, published 2005):

Legend:
[1] = tested on: U937 cell adhesion to HAEC; test: Flow adhesion assay: U937 cell adhesion to TNF-α activated HAEC; type: cell-based, human; details: shear stress 1.8 dynes/cm^2
Protocol: U937 cells (American Type Culture Collection; Manassas, Va.) are cultured in RPMI supplemented with 8% FBS, 2 mM L-glutamine, 100 units/ml penicillin and 100 μg/ml streptomycin. For the adhesion assays, U937 cells are washed, resuspended to 1×10^8 cells/ml in RPMI and held on ice (<4 hrs.) until the time they are used in the flow adhesion assay.
Flow adhesion assays: A parallel plate flow chamber (Glycotech; Rockville, Md.), similar to that described by McIntire, Smith and colleagues (34) is used in this study. Our particular set up has been described previously (20). A 35-mm tissue culture dish containing a confluent HAEC monolayer is loaded into the flow chamber. After a brief rinse, U937 cells (5*10^5 cells/ml in assay buffer) are drawn over the HAEC monolayer at a shear stress of 1.8 dynes/cm^2. To determine U937 cell accumulation, the number of U937 cells adherent (either rolling or firmly adherent) to the HAEC monolayer in 8 different fields of view after 2.5 minutes of flow is determined, averaged and normalized to the area of the field of view to give the result for that particular run. Such an assay is done at least 3 times. In certain experiments, TNF-α activated HAEC, in the absence or presence of C-10, are treated with mAbs HEL3/2 or 51-10C9 (10 μg/ml) or a combination of HEL3/2 and 51-10C9. […]

NF-κB = test: EMSA of TNF-α induced NF-κB binding activity to VCAM-1 promoter; type: cell-based, human; details: 0.5 mM; 2 hr. TNF-α; HAEC nuclear extract
Protocol: Nuclear Extracts and EMSA: Nuclear extracts are prepared from harvested HAEC using NE-PER® extraction reagents (Pierce Chemical Co.; Rockford, Ill.) in the presence of a protease inhibitor cocktail (PMSF, Leupeptin, Pepstatin-A). Oligonucleotides (Biosynthesis Inc.; Lewisville, Tex.) are annealed and precipitated double stranded oligonucleotides end labeled with γ-^32P-ATP using T4 polynucleotide kinase enzyme. Binding reactions (20 min., room temperature) included ^32P-labeled probe (activity 100,000 cpm), 3-6 μg HAEC nuclear extract, 1 μg poly(dI-dC), 1 mM DTT, 10% glycerol and 1× binding buffer. Binding buffer (10×) for NF-κB EMSA is 200 mM HEPES-KOH (pH7.9), 340 mM KCl, 50 mM MgCl2, 5 mM EDTA (pH 8.0), 1% Triton X-100. Binding buffer (10×) for IRF-1 EMSA is 100 mM Tris-HCL (pH 7.5), 500 mM NaCl, 50 mM MgCl2, 10 mM EDTA (pH 8.0). In competition studies, nuclear extracts are incubated with 100 fold molar excess of unlabeled double stranded oligonucleotide. In supershift studies, nuclear extracts are incubated with 2 μg of appropriate antibodies. After the incubations, reaction mixtures are electrophoresed (160V, room temperature) on 5% non-denaturing polyacrylamide gels containing 5% glycerol in 1×TBE (50 mM Tris, 50 mM boric acid, and 1 mM EDTA). Gels are dried and autoradiographed. Each experiment is replicated at least twice. […]

Cn1c(-c2ccccc2)cnc1S [5-Phenylmethimazole]
effect on TNF-α induced U937 cell adhesion to HAEC ([1]; 4 hr. TNF-α, C-10 0.5 mM, mAbs 10 μg/ml): little effect
effect on TNF-α induced U937 cell adhesion to HAEC ([1]; 24 hr. TNF-α, C-10 0.1 mM alone vs. DMSO): significantly reduced
effect on TNF-α dependent NF-κB complex formation (EMSA) (NF-κB): no effect
